Source: publication PMC5622107, “Small molecule inhibition of cGAS reduces interferon expression in primary macrophages from autoimmune mice” (Nature Communications, 2017)
Where two headings read alike, the source gives them in different places.

Columns and labels:
[1] = test system: 45-bp dsDNA; experiment: DNA intercalation: acridine orange displacement from dsDNA by fluorescence polarization; type: binding; settings: Supplementary Table 2; for % intercalation at 30 µM: acridine orange displacement compared to mitoxantrone; for Polarization: compound 30 µM
Method: Ten microliters of HEN buffer (10 mM HEPES pH 7.5, 1 mM EDTA pH 7.5, 100 mM NaCl) were dispensed per well using a Thermo Multidrop Combi dispenser (Thermo Scientific). The liquid was collected at the well bottom using centrifugation for 30 s at 180×g. […] The final concentration of compounds in the assay was 30 µM. […] The liquid was collected at the well bottom using centrifugation for 30 s at 180×g. […] The liquid was collected at the well bottom using centrifugation for 30 s at 180 × g and the plates were incubated for 30 min. Mitoxantrone, a known DNA intercalator was used at 50 µM as a positive control, while DMSO alone was used as negative control. FP was measured using a Biotek Synergy Neo plate reader. […] All FP values are expressed in millipolarization (mP) units. The mP values were calculated using the equation mP = 1000 × [(I S−I SB)−(I P−I PB)]/[I S—I SB) + (I P−I PB)], where I S and […] to the parallel and perpendicular emission intensity, respectively, and I SB and I SP corresponds to parallel emission intensity perpendicular emission intensity of the buffer, respectively. The experimental G-factor, defined as G = I S/I P, was set to 1.0 in all experiments.

[2] = molecular target: T1, mouse cGAS (Mus musculus, UniProt Q8C6L5); experiment: RapidFire mass spectrometry (RF-MS) cGAS enzymatic assay, cGAMP product formation; type: biochemical; settings: for inhibition at 12.5 µM: read-out: % inhibition at 12.5 µM
T1 construct: recombinant full-length mouse cGAS in reaction buffer; His6-SUMO (N, cleaved yes); made in house; host or cells: E. coli BL21(DE3) RIL
T1 sequence (Q8C6L5 whole entry): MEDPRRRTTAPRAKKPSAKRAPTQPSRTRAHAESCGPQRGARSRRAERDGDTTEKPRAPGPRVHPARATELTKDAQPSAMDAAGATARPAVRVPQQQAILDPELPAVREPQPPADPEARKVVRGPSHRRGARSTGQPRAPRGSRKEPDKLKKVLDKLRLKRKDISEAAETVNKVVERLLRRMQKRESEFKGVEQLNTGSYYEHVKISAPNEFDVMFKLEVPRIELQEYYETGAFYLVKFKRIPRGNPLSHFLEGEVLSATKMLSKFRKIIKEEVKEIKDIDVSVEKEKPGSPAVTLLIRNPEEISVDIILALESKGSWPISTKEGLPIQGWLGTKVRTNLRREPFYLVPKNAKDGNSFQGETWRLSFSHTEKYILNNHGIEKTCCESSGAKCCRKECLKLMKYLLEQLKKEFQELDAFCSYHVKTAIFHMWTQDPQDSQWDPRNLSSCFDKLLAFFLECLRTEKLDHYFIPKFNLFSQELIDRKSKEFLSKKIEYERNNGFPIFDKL
Method: The liquid was collected at the well bottom using centrifugation for 30 s at 180×g. […] Plates were centrifuged for 30 s at 180×g to collect all liquid at the bottom of the wells. […] The reaction was stopped by addition of 65 µl of 0.5% (v/v) formic acid per well. The plates were centrifuged for 30 s at 180×g and sealed with a Velocity11 PlateLoc thermal plate sealer.
The solvent used for loading/washing process was an aqueous solution of 5 mM ammonium acetate, pH 10. […] Each sample of approximately 35 µl were aspirated from a 384-well plate and separated using a Graphitic carbon Type D cartridge. After each sample was loaded onto the cartridge it was washed for 4 s at 1.5 ml min^−1 using the aqueous solvent. ATP, GTP and cGAMP were eluted for 5 s using the organic solvent at a flow rate of 1.5 ml min^−1. The cartridge was then re-equilibrated with the aqueous solvent for 5 s at a flow rate of 1.5 ml min^−1. All samples were analyzed using a negative ionization mode in the mass spectrometer, with a gas temperature of 350 °C, nebulizer pressure of 35 psig, gas flow rate of 15 l min^−1. […] The Agilent RapidFire Integrator software was used to calculate the area under the curve (AUC) of the extracted ion counts for each analyte. Data points represent values of product formation. Catalytic rates expressed as percent product formation were calculated using the AUC of cGAMP and using the AUC’s of ATP and GTP to normalize for variations in the capacity of the solid phase extraction column during a screening run, as shown in the following formula: product formation (%) = [(AUCcGAMP × 100)/(AUCcGAMP + ½ AUCATP + ½ AUCGTP)].
To determine the percent inhibition of mouse cGAS the data was normalized against the positive control (column 24) and negative control (column 23). […] The quality of the screen was assessed by Z′ factor[57] calculated as follows: Z′ = 1−[3∗(standard deviation positive control + standard deviation negative control)/(average positive control—average negative control)].

[3] = Supplementary Table 2, batch of compounds stored in the screening library, read-out: IC50
[4] = Supplementary Table 2, compound 12.5 µM

Row | Compound | % intercalation at 30 µM [1] [%] | Polarization [1] [mP] | IC50 [2, 3] [µM] | inhibition at 12.5 µM [2, 4] [%] | IC50 [2] [µM] | % inhibition at 12.5 µM [2, 4] [%] | inhibition at 12.5 µM [2] [%] | IC50 ([2]; Fig. 1e, four prioritized screening hits, confirmed with independent lots of compound, read-out: IC50) [µM]
1 | O=c1[nH]n2c(=O)c3ccccc3nc2c2ccccc12 [RU5004] | -2.1 | 255 | 6.49 | 90 |  |  |  | 
2 | Nc1c2ccccc2nc2ccccc12 [RU431] |  | 145 | 2.83 | 78 |  |  |  | 
3 | COc1cccc2c1C(=O)c1c(O)c3c(c(O)c1C2=O)C[C@@](O)(C(=O)CO)C[C@@H]3O[C@H]1C[C@H](N)[C@@H](O)[C@H](C)O1 [RU162145] | 96.5 | 53 |  | 98 | 0.58 |  |  | 
4 | COc1cccc2c1C(=O)c1c(O)c3c(c(O)c1C2=O)C[C@@](O)(C(=O)CO)C[C@@H]3O[C@H]1C[C@H](N)[C@H](O)[C@H](C)O1 [RU24114] |  | 53 |  | 96 | 0.82 |  |  | 
5 | CCOC(=O)c1n[nH]c2c1C(=O)N(CC)C2=O [RU4893] | -1.4 | 254 | 6.42 | 62 |  |  |  | 
6 | Cc1nc2nc(C)c(Br)c(O)n2n1 [RU6753] | -0.5 | 252 | 7.99 | 69 |  |  |  | 
7 | CC[n+]1c(-c2ccccc2)c2cc(N)ccc2c2ccc(N)cc21 [RU662] | 101.9 | 42 | 0.43 | 97 |  |  |  | 
8 | S=c1[nH]nc(-c2sc3ccccc3c2Cl)o1 [RU3433] |  | 288 | 6.12 | 92 |  |  |  | 
9 | O=C(O)C1CSC(c2cc(Br)c(O)c(Br)c2)N1 (stereo not shown) [RU5512] | -6.3 | 264 | 3 | 87 |  |  |  | 
10 | NC(=O)N1C(=O)/C(=C(\O)c2cccs2)c2cc(Cl)ccc21 [RU187170] |  | 276 | 6.09 | 70 |  |  |  | 
11 | O=C(Nc1nncs1)c1cn(-c2ccccc2Br)nn1 [RU191669] | -1.0 | 253 | 9.09 | 71 |  |  |  | 
12 | Cc1ccc(C(=O)c2nc3c(n2O)CCCCC3)cc1 [RU171395] | -0.3 | 251 | 0.25 | 90 |  |  |  | 
13 | N#Cc1cc(I)c(O)c([N+](=O)[O-])c1 [RU187299] | -2.8 | 256 | 0.58 | 95 |  |  |  | 
14 | O=C(O)COc1cc(Cl)c(Cl)cc1Cl [RU1535] | 3.4 | 244 | 0.55 | 98 |  |  |  | 
15 | CCN(CC)CCNc1ccc(CO)c2sc3ccccc3c(=O)c12 [RU869] | 81.2 | 85 | 6.8 | 66 |  |  |  | 
16 | COc1cccc2c1C(=O)c1c(O)c3c(c(O)c1C2=O)C[C@@](O)(C(C)=O)C[C@@H]3OC1CC(N)C(O)C(C)O1 (stereo partly shown) [RU24146] |  | 55 | 0.69 | 93 |  |  |  | 
17 | N#Cc1ccc(/C=C2\CS(=O)(=O)c3c(F)cccc3C2=O)cc1 [RU198755] | -6.2 | 263 | 6.33 | 63 |  |  |  | 
18 | CCN(CC)CCCC(C)Nc1c2ccc(Cl)cc2nc2ccc(OC)cc12 (stereo not shown) [RU316] |  | 140 | 6.22 |  |  | 68 |  | 
19 | O=c1cc(CCn2cccn2)nc(-c2ccc(CN3CCC[C@@H]3CO)cc2)[nH]1 [RU234543] | -9.3 | 270 | 6.76 | 89 |  |  |  | 
20 | N#CCC(=O)Nc1sc2c(c1C(N)=O)CCCC2 [RU93687] | -5.8 | 263 | 9.11 | 91 |  |  |  | 
21 | COC(=O)C1=NN2C(=NS(=O)(=O)c3ccccc32)N1 [RU209189] | 0.0 | 251 | 4.44 | 91 |  |  |  | 
22 | O=C1c2c(O)ccc(O)c2C(=O)c2c(NCCNCCO)ccc(NCCNCCO)c21 [RU627] | 102.5 | 41 | 0.72 | 94 |  |  |  | 
23 | CC(=O)[C@]1(O)Cc2c(O)c3c(c(O)c2[C@@H](O[C@H]2C[C@H](N)[C@H](O)[C@H](C)O2)C1)C(=O)c1ccccc1C3=O [RU84314] | 87.2 | 72 | 1.45 | 90 |  |  |  | 
24 | O=[N+]([O-])c1ccc(O)c([N+](=O)[O-])c1 [RU803] | -4.7 | 260 |  |  | 0.87 |  | 96 | 
25 | N#CC1=C(N)SC(N)=C(C#N)C1c1ccc([N+](=O)[O-])cc1 [RU107796] | -7.6 | 266 | 8.66 | 62 |  |  |  | 
26 | COc1cccc2c1C(=O)c1c(O)c3c(c(O)c1C2=O)C[C@@](O)(C(C)=O)C[C@@H]3O[C@H]1C[C@H](N)[C@H](O)[C@H](C)O1 [RU83653] | 98.0 | 50 | 1.81 | 91 |  |  |  | 
27 | C[n+]1cc2c3c(ccc2c2ccc4cc5c(cc4c21)OCO5)OCO3 [RU871] | 95.0 | 56 | 3.37 | 85 |  |  |  | 
28 | Oc1c(Cl)cc(Cl)c(Cl)c1Cc1c(O)c(Cl)cc(Cl)c1Cl [RU161] | 69.6 | 108 |  |  | 0.39 |  | 93 | 
29 | CCC1=NN2C(=N)/C(=C/c3ccc(O)cc3)C(=O)N=C2S1 [RU169196] | -7.5 | 266 | 4.25 | 89 |  |  |  | 
30 | O=C(CCl)Nc1nc(-c2c[nH]c3ccccc23)cs1 [RU114757] | -10.1 | 271 | 5.38 | 72 |  |  |  | 1.4
